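1) Cells in 96-well plates. 2) Compound, 48 h, 5 concentrations. 3) Linear interpolation between surrounding doses. 4) Unreached endpoint = highest concentration. GI50 = concentration required for 50% inhibition of growth. TGI is the concentration that stops growth completely.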
Key:
Assay in all cases: DTP human tumour cell line panel, 48 h
[1] = system: CAKI-1 renal
[2] = system: 786-0 renal
[3] = system: SF-539 CNS
[4] = system: OVCAR-8 ovarian
[5] = system: UO-31 renal
[6] = system: SR leukemia
[7] = system: UACC-62 melanoma
[8] = system: M14 melanoma
[9] = system: RPMI-8226 leukemia
[10] = system: HCT-116 colon
[11] = system: HOP-92 NSCLC
[12] = system: TK-10 renal
[13] = system: NCI-H23 lung
[14] = system: SN12C renal
[15] = system: K-562 leukemia
[16] = system: OVCAR-5 ovarian
[17] = system: SK-MEL-28 melanoma
[18] = system: MOLT-4 leukemia
[19] = system: NCI/ADR-RES ovarian
[20] = system: SF-295 CNS
[21] = system: ACHN renal
[22] = system: UACC-257 melanoma
[23] = system: IGROV1 ovarian
[24] = system: MDA-MB-231 breast
[25] = system: HCC-2998 colon
[26] = system: KM12 colon
[27] = system: CCRF-CEM leukemia
[28] = system: HL-60(TB) leukemia
[29] = system: A498 renal
[30] = system: HCT-15 colon
[31] = system: HOP-62 NSCLC
[32] = system: RXF 393 renal
[33] = system: SW-620 colon
[34] = system: MDA-MB-468 breast
[35] = system: OVCAR-3 ovarian
[36] = system: SK-OV-3 ovarian
[37] = system: LOX IMVI melanoma
[38] = system: NCI-H226 lung
[39] = system: SNB-75 CNS
[40] = system: MCF7 breast
[41] = system: BT-549 breast
[42] = system: PC-3 prostate
[43] = system: U251 CNS
[44] = system: HS 578T breast
[45] = system: EKVX NSCLC
[46] = system: NCI-H460 lung
[47] = system: MDA-MB-435
[48] = system: SF-268 CNS
[49] = system: HT29 colon
[50] = system: MALME-3M melanoma
[51] = system: SK-MEL-2 melanoma
[52] = system: SNB-19 CNS
[53] = system: SK-MEL-5 melanoma
[54] = system: T-47D breast
[55] = system: COLO 205 colon
[56] = system: A549 NSCLC
[57] = system: NCI-H522 lung
[58] = system: OVCAR-4 ovarian
[59] = system: DU-145 prostate

## Cn1cc(-c2cc(N)n3nc(-c4c[nH]c5ccccc45)cc3n2)c2ccccc21
[1]
  GI50: 1.91 µM
  TGI: 4.48 µM
[2]
  GI50: 1.68 µM
  TGI: 3.26 µM
[3]
  GI50: 1.81 µM
  TGI: 3.21 µM
[4]
  GI50: 2.66 µM
  TGI: 8.25 µM
[5]
  GI50: 1.64 µM
  TGI: 3.28 µM
[6]
  GI50: 2.01 µM
  TGI: 39 µM
[7]
  GI50: 1.74 µM
  TGI: 3.17 µM
[8]
  GI50: 1.79 µM
  TGI: 3.66 µM
[9]
  GI50: 2.51 µM
  TGI: 6.95 µM
[10]
  GI50: 1.9 µM
  TGI: 3.54 µM
[11]
  GI50: 2.29 µM
  TGI: 5.47 µM
[12]
  GI50: 2.15 µM
  TGI: 7.17 µM
[13]
  GI50: 2.36 µM
  TGI: 5.83 µM
[14]
  GI50: 3.47 µM
  TGI: 12.4 µM
[15]
  GI50: 2.34 µM
  TGI: 6.81 µM
[16]
  GI50: 2.05 µM
  TGI: 4.64 µM
[17]
  GI50: 1.66 µM
  TGI: 3.03 µM
[18]
  GI50: 2.5 µM
  TGI: 8.28 µM
[19]
  GI50: 2.65 µM
  TGI: 7.75 µM
[20]
  GI50: 1.78 µM
  TGI: 3.4 µM
[21]
  GI50: 2.22 µM
  TGI: 4.85 µM
[22]
  GI50: 1.84 µM
  TGI: 3.45 µM
[23]
  GI50: 2.64 µM
  TGI: 6.84 µM
[24]
  GI50: 1.9 µM
  TGI: 3.47 µM
[25]
  GI50: 1.79 µM
  TGI: 3.34 µM
[26]
  GI50: 1.94 µM
  TGI: 3.99 µM
[27]
  GI50: 2.77 µM
  TGI: 24 µM
[28]
  GI50: 1.99 µM
  TGI: 5.08 µM
[29]
  GI50: 7.63 µM
  TGI: 20.8 µM
[30]
  GI50: 1.64 µM
  TGI: 3.3 µM
[31]
  GI50: 3.09 µM
  TGI: 10.5 µM
[32]
  GI50: 1.69 µM
  TGI: 3.96 µM
[33]
  GI50: 1.77 µM
  TGI: 3.45 µM
[34]
  GI50: 1.63 µM
  TGI: 3.11 µM
[35]
  GI50: 2.1 µM
  TGI: 4.59 µM
[36]
  GI50: 11.8 µM
  TGI: 25.6 µM
[37]
  GI50: 1.81 µM
  TGI: 3.25 µM
[38]
  GI50: 11.4 µM
  TGI: 37.2 µM
[39]
  GI50: 7.65 µM
  TGI: 21.3 µM
[40]
  GI50: 1.81 µM
  TGI: 3.78 µM
[41]
  GI50: 14.8 µM
  TGI: 29.8 µM
[42]
  GI50: 3.38 µM
  TGI: 14.4 µM
[43]
  GI50: 2.04 µM
  TGI: 4.04 µM
[44]
  GI50: 5.53 µM
  TGI: 45.4 µM
[45]
  GI50: 2.48 µM
  TGI: 7.15 µM
[46]
  GI50: 1.95 µM
  TGI: 3.83 µM
[47]
  GI50: 1.92 µM
  TGI: 3.92 µM
[48]
  GI50: 4.25 µM
  TGI: 20.6 µM
[49]
  GI50: 1.69 µM
  TGI: 3.23 µM
[50]
  GI50: 1.56 µM
  TGI: 2.9 µM
[51]
  GI50: 4.72 µM
  TGI: 17.2 µM
[52]
  GI50: 3.14 µM
  TGI: 11.4 µM
[53]
  GI50: 1.77 µM
  TGI: 3.43 µM
[54]
  GI50: 2.02 µM
  TGI: 4.58 µM
[55]
  GI50: 1.72 µM
  TGI: 3.35 µM
[56]
  GI50: 3.01 µM
  TGI: 12 µM
[57]
  GI50: 1.69 µM
  TGI: 3.33 µM
[58]
  GI50: 3.26 µM
  TGI: 14.7 µM
[59]
  GI50: 3.61 µM
  TGI: 13.5 µM

From PubChem BioAssay (NCI)
